Measurements as given in patent US8808715B1, “Methods and compositions for modulating keratinocyte function” (Georgia Regents Research Institute, Inc, priority 2004, dated 2014).

Assays:
[1] = tested on: rapidly dividing keratinocytes; assay: Assay of DNA synthesis ([3H]thymidine incorporation) in rapidly dividing keratinocytes; assay type: cell-based; details: for effect on DNA synthesis ([3H]thymidine incorporation into DNA) / lowest concentration at which inhibition of DNA synthesis was observed / inhibition of DNA synthesis, percent of control (in words) / concentration of maximal inhibition of DNA synthesis / inhibition of DNA synthesis compared with egg-derived PG / effect on DNA synthesis in presence of 125 μM Ca2+: 24 hours; for effect on DNA synthesis ([3H]thymidine incorporation into DNA): control (25 μM Ca2+) medium; for lowest concentration at which inhibition of DNA synthesis was observed / concentration of maximal inhibition of DNA synthesis / inhibition of DNA synthesis compared with egg-derived PG: liposomes; for lowest concentration at which inhibition of DNA synthesis was observed / inhibition of DNA synthesis compared with egg-derived PG: FIG. 20A; for inhibition of DNA synthesis, percent of control (in words) / concentration at which DNA synthesis was inhibited: FIG. 21B; for inhibition of DNA synthesis, percent of control (in words): PG versus PP headgroup species; for effect on DNA synthesis in presence of 125 μM Ca2+: 125 μM Ca2+ medium; for concentration at which DNA synthesis was inhibited: lowest tested 25 μg/mL, highest tested 100 μg/mL
Procedure: (§1) Keratinocytes were prepared from ICR CD-I outbred mice in accordance with a protocol approved by the Institutional Animal Care and Use Committee. Briefly, the skins were harvested and incubated overnight in 0.25% trypsin at 4° C. The epidermis and dermis were separated and basal keratinocytes scraped from the underside of the epidermis. The cells were collected by centrifugation and incubated overnight in an atmosphere of 95% air/5% carbon dioxide at 37° C. in plating medium as described in Dodd M E, Ristich V L, Ray S, Lober R M, Bollag W B (2005) Regulation of protein kinase D during differentiation and proliferation of primary mouse keratinocytes. J Invest Dermatol 125:294-306, incorporated herein by reference. The plating medium was replaced with serum-free keratinocyte medium (SFKM) also as in Dodd, et al., and the cells were refed every 1-2 days with fresh medium until use.
(§2) [^3H]Thymidine incorporation into DNA was determined as a measure of DNA synthesis as previously described by Griner, et al., above. Near-confluent keratinocyte cultures were incubated for 24 hours in SFKM containing the indicated additions. PG was added in the form of liposomes prepared by bath sonication of dried PG in SFKM to make a stock solution of 2 mg/mL. [^3H]Thymidine at a final concentration of 1 μCi/mL was then added to the cells for an additional 1-hour incubation. Reactions were terminated by washing with PBS- and macromolecules precipitated with ice-cold 5% trichloroacetic acid. Cells were solubilized in 0.3 M NaOH and the radioactivity incorporated into DNA quantified by liquid scintillation spectroscopy.
(§3) [^3H]Thymidine incorporation was used as a measure of DNA synthesis and was performed as described in Example 2. Liposomes containing PG and functional derivatives thereof were prepared by bath sonication as described in Example 2, with the exception that different concentrations of material were employed.

[2] = tested on: slowly dividing keratinocytes; assay: Assay of DNA synthesis ([3H]thymidine incorporation) in slowly proliferating keratinocytes; assay type: cell-based, mouse; details: liposomes, 24 hours; for effect on DNA synthesis ([3H]thymidine incorporation into DNA): keratinocytes with reduced proliferation; for lowest concentration at which stimulation of DNA synthesis was observed / stimulation of DNA synthesis compared with egg-derived PG: FIG. 20B
Procedure: Confluent keratinocytes were treated for 24 hours with the indicated concentrations of phosphatidylglycerol (PG), prepared via bath sonication of PG in serum-free keratinocyte medium. [^3H]Thymidine incorporation into DNA was then determined as above. [^3H]Thymidine incorporation into DNA under control conditions was 12,880±1,040 cpm/well. Values represent the means±SEM of 3 separate experiments performed in duplicate; *p<0.01, **p<0.001 versus the control value.
as §1, §2, §3

AQP3 null mutant mouse = details: studies of the AQP3 null mutant mouse; cited from earlier work
[3] = tested on: primary epidermal keratinocytes; assay: Radiolabeled phosphatidylglycerol formation in intact keratinocytes; assay type: cell-based, mouse
Procedure: Primary epidermal keratinocytes were prepared from 1-3-day old neonatal ICR mice after trypsin flotation of the skin and mechanical separation of the epidermis from the dermis. The epidermal cells were released by scraping, collected by centrifugation and plated in 6-well dishes in a medium consisting of MEM containing 25 μM calcium, 2% dialyzed fetal bovine serum, 2 mM glutamine, 5 ng/mL EGF, ITS (6.25 μg/mL insulin+6.25 μg/mL transferrin+6.25 ng/mL selenious acid+5.35 μg/mL linoleic acid+1.25% bovine serum albumin), 100 U/mL penicillin, 100 μg/mL streptomycin and 0.25 μg/mL fungizone. After an overnight incubation, the cells were refed with serum-free keratinocyte medium (SFKM), in which 2% dialyzed fetal bovine serum was replaced with 90 μg/mL bovine pituitary extract. Cells were refed with fresh medium every 1-3 days.
For the PLD assay cultured primary keratinocytes were labeled for 20-24 hours with 2.5 μCi/ml [^3H] oleic acid. The cells were then exposed to vehicle or 100 nM PMA in the presence of 0.5% ethanol for 30 minutes. To measure the formation of radiolabeled phosphatidylglycerol, cells were treated for 24 hours with SFKM containing vehicle, 250 nM 1,25-dihydroxyvitamin D3 or 125 μM calcium and then labeled for an additional 30 minutes with 1-2.5 μCi/mL [^3H] or 0.4-0.5 μCi/mL [^14C]glycerol. For experiments investigating the extracellular calcium dependence of PG formation, cells were incubated for 24 hours in SFKM containing various calcium concentrations prior to the addition of 5 μCi/mL [^3H]glycerol for 30 minutes. In some cases, cells were stimulated with 25 μM calcium (control)—or 125 μM calcium-containing SFKM for 24 hours prior to the addition of [^14C]glycerol in the presence and absence of 1% ethanol. To measure phosphatidylglycerol formation in response to PMA, unlabeled cells were stimulated with 100 nM PMA in the presence of radiolabeled glycerol, as above. Reactions were terminated and the radiolabeled phosphatidylalcohol extracted, separated by thin-layer chromatography and quantified as described by Bollag (1998), referenced above.

## CCCCCCCC/C=C\CCCCCCCC(=O)O[C@H](COC(=O)CCCCCCCCCCCCCCC)COP(=O)(O)OCC(O)CO (some centres unmarked) [POPG, palmitoyl-oleoyl-PG]
[1]
  effect on DNA synthesis ([3H]thymidine incorporation into DNA): moderate inhibition of DNA synthesis
  lowest concentration at which inhibition of DNA synthesis was observed: 100 µg/mL
[2]
  effect on DNA synthesis ([3H]thymidine incorporation into DNA): only mildly stimulatory

## CCCCCCCCCCCCCCCC(=O)OC[C@H](COP(=O)(O)OCCC)OC(=O)CCCCCCCCCCCCCCC [DPPP, dipalmitoyl-PP]
[1]
  effect on DNA synthesis ([3H]thymidine incorporation into DNA): did not affect DNA synthesis
  inhibition of DNA synthesis, percent of control (in words): lack of effect

## OCCCO [1,3-propylene glycol]
AQP3 null mutant mouse
  correction of the epidermal phenotype of the knockout model: not

## CCCCCCCCCCCCCCCC(=O)OCC(COP(=O)(O)OCC(O)CO)OC(=O)CCCCCCCCCCCCCCC (centres unmarked) [DPPG, dipalmitoyl-PG]
[2]
  lowest concentration at which stimulation of DNA synthesis was observed: 50 µg/mL
  stimulation of DNA synthesis compared with egg-derived PG: approximately the same level as egg-derived PG

## CCCCCCCC/C=C\CCCCCCCC(=O)OC[C@H](COP(=O)(O)OCC(O)CO)OC(=O)CCCCCCC/C=C\CCCCCCCC (some centres unmarked) [DOPG, dioleoyl-PG]
[1]
  effect on DNA synthesis ([3H]thymidine incorporation into DNA): no inhibition of DNA synthesis
[2]
  concentration of maximal stimulation of DNA synthesis: 100 µg/mL
  lowest concentration at which stimulation of DNA synthesis was observed: 12.5 µg/mL
  stimulation of DNA synthesis compared with egg-derived PG: more potently than egg-derived PG
  effect on DNA synthesis ([3H]thymidine incorporation into DNA): potent stimulator of DNA synthesis

## C=C1/C(=C\C=C2/CCC[C@]3(C)[C@@H]([C@H](C)CCCC(C)(C)O)CC[C@@H]23)C[C@@H](O)C[C@@H]1O [1,25-dihydroxyvitamin D3]
[3]; 24 hours pretreatment (250 nM 1,25-dihydroxyvitamin D3 or 125 μM calcium), then [3H]glycerol 30 minutes
  radiolabeled PG formation relative to control cells: did not increase radiolabeled PG formation
[3]; intermediate (10 nM) and high (250 nM) concentrations, 24 hours
  PG production: significantly inhibited PG production

## CCCCCCCC/C=C\CCCCCCCC(=O)OC[C@H](COP(=O)(O)OCCC)OC(=O)CCCCCCC/C=C\CCCCCCCC [DOPP, dioleoyl-phosphatidylpropanol]
[1]
  effect on DNA synthesis ([3H]thymidine incorporation into DNA): no impact on DNA synthesis
  inhibition of DNA synthesis, percent of control (in words): lack of effect

## CCCCC/C=C\C/C=C\C/C=C\C/C=C\CCCC(=O)O[C@H](COC(=O)CCCCCCCCCCCCCCC)COP(=O)(O)OCC(O)CO (some centres unmarked) [PAPG, palmitoyl-arachidonoyl-PG]
[1]
  effect on DNA synthesis ([3H]thymidine incorporation into DNA): inhibit DNA synthesis in a dose dependent manner
  concentration of maximal inhibition of DNA synthesis: 100 µg/mL
  inhibition of DNA synthesis compared with egg-derived PG: at least as strongly as egg-derived PG
  lowest concentration at which inhibition of DNA synthesis was observed: 12.5 µg/mL
[2]
  effect on DNA synthesis ([3H]thymidine incorporation into DNA): only mildly stimulatory

## CC(O)CO (centres unmarked) [1,2-propylene glycol]
[1]
  effect on DNA synthesis in presence of 125 μM Ca2+: dose dependent inhibition
  effect on DNA synthesis ([3H]thymidine incorporation into DNA): dose dependent inhibition
AQP3 null mutant mouse
  correction of the epidermal phenotype of the knockout model: not

## CCO [ethanol]
[3]; 1% ethanol, 25 μM calcium control cells
  basal (control) PG production: without affecting basal (control) PG production
[3]; 1% ethanol, cells pretreated with 125 μM calcium, [14C]glycerol
  PG formation stimulated by preexposure to elevated extracellular calcium: significantly inhibited PG formation

## CCCCC/C=C\C/C=C\CCCCCCCC(=O)OC[C@H](COP(=O)(O)OCCC)OC(=O)CCCCCCC/C=C\C/C=C\CCCCC [DLPP, dilinoleoyl-PP]
[1]
  inhibition of DNA synthesis, percent of control (in words): not statistically significant
  concentration at which DNA synthesis was inhibited: 100 µg/mL

## CCCCC/C=C\C/C=C\CCCCCCCC(=O)OC[C@H](COP(=O)(O)OCC(O)CO)OC(=O)CCCCCCC/C=C\C/C=C\CCCCC (some centres unmarked) [DLPG, dilinoleoyl-PG]
[1]
  effect on DNA synthesis ([3H]thymidine incorporation into DNA): inhibit DNA synthesis in a dose dependent manner
  concentration at which DNA synthesis was inhibited: ≤ 25 µg/mL
  concentration of maximal inhibition of DNA synthesis: 100 µg/mL
  inhibition of DNA synthesis compared with egg-derived PG: at least as strongly as egg-derived PG
  lowest concentration at which inhibition of DNA synthesis was observed: 6.25 µg/mL

## CCCCCC(=O)OCC(COP(=O)(O)OCC(O)CO)OC(=O)CCCCC (centres unmarked) [DHPG, dihexanoyl-PG]
[2]
  effect on DNA synthesis ([3H]thymidine incorporation into DNA): only mildly stimulatory

## OC[C@@H](O)[C@@H](O)[C@H](O)[C@@H](O)CO [sorbitol]
[1]
  effect on DNA synthesis in presence of 125 μM Ca2+: no significant effect
  effect on DNA synthesis ([3H]thymidine incorporation into DNA): no significant effect

## OC[C@@H](O)[C@H](O)[C@@H](O)CO [xylitol]
[1]
  effect on DNA synthesis in presence of 125 μM Ca2+: no significant effect
  effect on DNA synthesis ([3H]thymidine incorporation into DNA): no significant effect
AQP3 null mutant mouse
  correction of the epidermal phenotype of the knockout model: not

## palmitoyl-linoleoyl-PG [PLPG]
[1]
  effect on DNA synthesis ([3H]thymidine incorporation into DNA): inhibit DNA synthesis in a dose dependent manner
  concentration of maximal inhibition of DNA synthesis: 100 µg/mL
  inhibition of DNA synthesis compared with egg-derived PG: at least as strongly as egg-derived PG
  lowest concentration at which inhibition of DNA synthesis was observed: 50 µg/mL
